This passage reports IC50 and Ki results from patent US12378186B2, “Inhibitors of meprin α and β” (VIVORYON THERAPEUTICS N.V., priority 2016, dated 2025).

The target in assay [1] is T1, hMeprin β (Homo sapiens, UniProt Q16820).
T1 sequence (Q16820 62-701): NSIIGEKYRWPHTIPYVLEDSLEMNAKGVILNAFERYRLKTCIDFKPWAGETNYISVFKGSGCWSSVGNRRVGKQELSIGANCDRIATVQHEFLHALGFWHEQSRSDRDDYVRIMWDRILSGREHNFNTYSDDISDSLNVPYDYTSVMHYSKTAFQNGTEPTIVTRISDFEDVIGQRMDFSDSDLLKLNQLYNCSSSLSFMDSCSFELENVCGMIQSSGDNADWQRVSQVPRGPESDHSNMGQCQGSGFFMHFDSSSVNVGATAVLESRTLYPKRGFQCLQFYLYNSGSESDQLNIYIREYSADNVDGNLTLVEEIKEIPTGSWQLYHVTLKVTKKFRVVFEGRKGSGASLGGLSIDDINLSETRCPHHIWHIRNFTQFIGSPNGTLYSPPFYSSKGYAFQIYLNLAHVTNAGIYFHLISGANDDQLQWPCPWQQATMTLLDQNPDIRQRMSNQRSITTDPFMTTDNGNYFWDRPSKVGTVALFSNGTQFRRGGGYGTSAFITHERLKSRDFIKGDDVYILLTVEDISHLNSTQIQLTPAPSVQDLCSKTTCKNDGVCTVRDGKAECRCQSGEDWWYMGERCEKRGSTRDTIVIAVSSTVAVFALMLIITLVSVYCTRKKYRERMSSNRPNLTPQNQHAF
Kind of assay: Enzymatic assay, cleavage of internally quenched peptide substrate, hMeprin β. Type of assay: biochemical. As to the method: (§1) A typical assay of 250 μl total volume measured in black 96 well plates consisted of 100 μl buffer, 50 μl enzyme at a final concentration of 5e-8 M to 5e-9 M, 50 μl substrate (0.15 to 80 μM, in buffer, 0.5% DMSO) and 50 μl inhibitor solution (in buffer, 1% DMSO). In case of 125 μl assay volume (black 96 half area well plates) all volumes were cut in half. Enzymatic activity of ADAMs was measured in 384 well plates with 60 μl total assay volume consisting of 20 μl inhibitor, 20 μl buffer, 10 μl enzyme and 10 μl substrate.
(§2) Ki values were assessed combining 4 substrate concentrations (5-40 μM) with at least 5 inhibitor concentrations. […] Initial velocities were determined and converted into concentration units applying a standard curve obtained after complete conversion of different substrate concentrations under assay conditions. All measurements were performed using a fluorescence plate reader (FLUOstar OPTIMA, BMG Labtech) at 30° C. The kinetic parameters were determined at least in duplicates on separate days. The excitation/emission wavelength was 340/420 nm. The kinetic data was evaluated using GraFit software (version 7.0.3, Erithacus Software).
(§3) The following compounds according to the present invention were synthesized using the above general procedures. IC50 refers to the average IC50 values measured as described above, SD (IC50) refers to the standard deviation of the average IC50 values, Ki refers to the average K; values measured as described above, and SD (Ki) to the standard deviation of the average Ki values.

Assay [2] has as its target T2, hMeprin α (Homo sapiens, UniProt Q16819).
T2 sequence (Q16819 66-746): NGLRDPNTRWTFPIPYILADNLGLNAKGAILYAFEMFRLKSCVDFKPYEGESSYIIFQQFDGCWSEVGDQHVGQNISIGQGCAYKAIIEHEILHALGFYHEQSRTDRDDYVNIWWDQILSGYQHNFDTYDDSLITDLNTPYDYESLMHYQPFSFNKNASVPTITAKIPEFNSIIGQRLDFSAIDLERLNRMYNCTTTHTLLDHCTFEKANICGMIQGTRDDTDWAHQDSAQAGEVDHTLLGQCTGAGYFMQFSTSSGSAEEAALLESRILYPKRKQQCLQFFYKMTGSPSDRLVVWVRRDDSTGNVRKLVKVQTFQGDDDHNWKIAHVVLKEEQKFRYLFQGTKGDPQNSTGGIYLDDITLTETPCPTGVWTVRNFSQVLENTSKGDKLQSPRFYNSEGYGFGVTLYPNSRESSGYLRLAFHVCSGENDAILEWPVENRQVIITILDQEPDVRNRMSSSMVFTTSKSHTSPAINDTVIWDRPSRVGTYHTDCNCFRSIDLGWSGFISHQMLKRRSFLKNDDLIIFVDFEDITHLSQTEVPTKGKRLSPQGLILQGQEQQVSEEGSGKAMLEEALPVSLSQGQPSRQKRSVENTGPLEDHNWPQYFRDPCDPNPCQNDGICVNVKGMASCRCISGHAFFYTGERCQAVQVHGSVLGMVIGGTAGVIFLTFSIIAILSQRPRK
Kind of assay: biochemical. Type of assay: biochemical. The settings on record: 30° C., 40 mM HEPES pH 7.4; for IC50: average IC50, 10 μM substrate, read-out: Meprin Alpha IC50; for Ki: average Ki, 4 substrate concentrations (5-40 μM), read-out: Meprin Alpha Ki. As for the experimental part: as §1, §2, §3

Where [3] appears, read: average IC50, 10 μM substrate, 30° C., 40 mM Tris pH 8.0, read-out: Meprin Beta IC50.

Where two headings read alike, the source gives them in different places.

As to `O=C(O)c1cccc(CN2CCCC2C(=O)NO)c1` (stereo in doubt) [Example 12, 3-[[(2R)-2-(Hydroxycarbamoyl)pyrrolidin-1-yl]methyl]benzoic acid], the IC50 in assay [1] is 31400 nM.

In assay [1], `O=C(O)c1cccc(CN2CCCC2C(=O)NO)c1` (stereo in doubt) [Example 13, 3-[[(2S)-2-(Hydroxycarbamoyl)pyrrolidin-1-yl]methyl]benzoic acid] returned an IC50 of 41100 nM.

Regarding `O=C(CN(Cc1ccc(C(=O)O)cc1)Cc1ccc(C(=O)O)cc1)NO` [Example 1, 4-[[(4-Carboxyphenyl)methyl-[2-(hydroxyamino)-2-oxo-ethyl]amino]methyl]benzoic acid], the IC50 in assay [2] stood at 85700 nM. In assay [1], this compound had an IC50 of 468 nM and an inhibitory constant (Ki) of 223 nM.

For the compound `O=C(CN(Cc1cccc(C(=O)O)c1)Cc1cccc(C(=O)O)c1)NO` [Example 2, 3-[[(3-Carboxyphenyl)methyl-[2-(hydroxyamino)-2-oxo-ethyl]amino]methyl]benzoic acid], in assay [2], the IC50 was 30900 nM and the Ki amounted to 10400 nM. In addition, the Ki in assay [1] came to 18 nM.

For `O=C(CNCc1cccc(C(=O)O)c1)NO` [Example 3, 3-[[[2-(Hydroxyamino)-2-oxo-ethyl]amino]-methyl]benzoic acid], the Ki in assay [1] came out at 183 nM. For the same compound, the 50% inhibitory concentration (IC50) in assay [1] (setting [3]) stood at 377 nM.

As to `O=C(CN(Cc1ccc2c(c1)OCO2)Cc1ccc2c(c1)OCO2)NO` [Example 4, 2-[bis(1,3-Benzodioxol-5-ylmethyl)amino]-ethanehydroxamic acid], in assay [2], the half-inhibitory concentration (IC50) stood at 830 nM and the Ki is 274 nM. Besides, in assay [1], inhibition was half-maximal at 5360 nM (IC50) and the inhibition constant (Ki) came out at 6560 nM.

`COc1cccc(CN(CC(=O)NO)Cc2cccc(OC)c2)c1` [Example 5, 2-[bis[(3-Methoxyphenyl)methyl]amino]-ethanehydroxamic acid]: in assay [1], the IC50 stood at 25600 nM and affinity was put at a Ki of 15700 nM.

For `COc1ccc(CN(CC(=O)NO)Cc2cccc(C(=O)O)c2)cc1` [Example 6, 3-[[[2-(Hydroxyamino)-2-oxo-ethyl]-[(4-methoxyphenyl)methyl]amino]-methyl]benzoic acid], the Ki came out at 1210 nM in assay [2] and 39 nM in assay [1].

Regarding `O=C(CN(Cc1ccc(C(=O)O)cc1)Cc1cccc(C(=O)O)c1)NO` [Example 7, 3-[[(4-Carboxyphenyl)methyl-[2-(hydroxyamino)-2-oxo-ethyl]amino]methyl]benzoic acid], the IC50 in assay [2] came to 44400 nM; in assay [1] (setting [3]) it was 206 nM. In assay [1], this compound registered a Ki of 101 nM.

In assay [1], `O=C(CN(Cc1ccc(-c2ccccc2)cc1)Cc1cccc(C(=O)O)c1)NO` [Example 8, 3-[[[2-(Hydroxyamino)-2-oxo-ethyl]-[(4-biphenyl)methyl]amino]-methyl]benzoic acid] had a half-inhibitory concentration (IC50) of 1440 nM and a Ki of 1030 nM.

In assay [1], `CCCOc1ccc(CN(CC(=O)NO)Cc2cccc(C(=O)O)c2)cc1` [Example 9, 3-[[[2-(Hydroxyamino)-2-oxo-ethyl]-[(4-propoxyphenyl)methyl]amino]-methyl]benzoic acid] displayed a half-inhibitory concentration (IC50) of 2250 nM and a Ki of 874 nM.

With `COc1ccc(CN(CC(=O)NO)Cc2cccc(C(=O)O)c2)cc1F` [Example 10, 3-[[(3-Fluoro-4-methoxy-phenyl)methyl-[2-(hydroxyamino)-2-oxo-ethyl]amino]methyl]benzoic acid], in assay [2], the IC50 is 3740 nM and the Ki came out at 1090 nM. In assay [1], this compound yielded an IC50 of 352 nM and a Ki of 157 nM.

As for `COc1cc(F)c(CN(CC(=O)NO)Cc2cccc(C(=O)O)c2)c(F)c1` [Example 11, 3-[[(2,6-Difluoro-4-methoxy-phenyl)methyl-[2-(hydroxyamino)-2-oxo-ethyl]amino]methyl]benzoic acid], in assay [2], the IC50 was determined as 2120 nM and the Ki was 1260 nM. In assay [1], this compound came in with a 50% inhibitory concentration (IC50) of 355 nM and a Ki of 154 nM.

For the compound `COc1cccc(CN(CC(=O)NO)Cc2cccc(C(=O)O)c2)c1` [Example 14, 3-[[[2-(Hydroxyamino)-2-oxo-ethyl]-[(3-methoxyphenyl)methyl]amino]-methyl]benzoic acid], the Ki in assay [1] stood at 288 nM. For the same compound, the IC50 in assay [1] (setting [3]) was found to be 559 nM.

Take `COc1ccc(CN(CC(=O)NO)Cc2ccc(OC)cc2)cc1` [Example 15, 2-[bis[(4-Methoxyphenyl)methyl]amino]ethane-hydroxamic acid]: in assay [1], half-maximal inhibition (IC50) required 31800 nM.

Compound `COc1ccc(CN(CC(=O)NO)Cc2ccccc2C(=O)O)cc1` [Example 16, 2-[[[2-(Hydroxyamino)-2-oxo-ethyl]-[(4-methoxyphenyl)methyl]amino]-methyl]benzoic acid] displayed an IC50 in assay [1] of 22800 nM.

In the case of `O=C(CN(Cc1ccccc1)Cc1cccc(C(=O)O)c1)NO` [Example 17], the Ki in assay [1] turned out to be 797 nM.

As for `Cc1ccc(CN(CC(=O)NO)Cc2cccc(C(=O)O)c2)cc1` [Example 18, 3-[[[2-(Hydroxyamino)-2-oxo-ethyl]-(p-tolyl-methyl)amino]methyl]benzoic acid], in assay [2], the IC50 was determined as 4670 nM and the Ki was found to be 1990 nM. In assay [1], the IC50 is 361 nM and the affinity, expressed as Ki, was 170 nM.

For the compound `N#Cc1ccc(CN(CC(=O)NO)Cc2cccc(C(=O)O)c2)cc1` [Example 19, 3-[[(4-Cyanophenyl)methyl-[2-(hydroxyamino)-2-oxo-ethyl]amino]methyl]benzoic acid], the IC50 in assay [2] worked out at 4880 nM; in assay [1] (setting [3]) it was 320 nM. The Ki came out at 1950 nM in assay [2] and 125 nM in assay [1].

Turning to `N#Cc1ccc(CN(CC(=O)NO)Cc2ccc(C#N)cc2)cc1` [Example 55, 2-[bis[(4-cyanophenyl)methyl]amino]-ethanehydroxamic acid], in assay [2], the concentration for half-maximal inhibition (IC50) came to 5660 nM and the Ki is 1600 nM.

Turning to `COc1c(Cl)ccc(CN(CC(=O)NO)Cc2ccc(Cl)c(OC)c2F)c1F` [Example 56, 2-[bis[(4-chloro-2-fluoro-3-methoxy-phenyl)-methyl]amino]ethanehydroxamic acid], in assay [2], the IC50 is 4980 nM and the Ki is 1010 nM.

For the compound `N#Cc1ccc(CN(CCC(=O)NO)Cc2ccc(C#N)cc2)cc1` [Example 57, 3-[bis[(4-cyanophenyl)methyl]amino]-propanehydroxamic acid], the Ki in assay [2] stood at 1200 nM.

On to `O=C(CCN(Cc1ccc(Cl)cc1F)Cc1ccc(Cl)cc1F)NO` [Example 62, 3-[bis[(4-chloro-2-fluoro-phenyl)methyl]-amino]propanehydroxamic acid], for which the Ki in assay [2] is 169 nM.

For the compound `COc1c(Cl)ccc(CN(CCC(=O)NO)Cc2ccc(Cl)c(OC)c2F)c1F` [Example 65, 3-[bis[(4-chloro-2-fluoro-3-methoxy-phenyl)-methyl]amino]propanehydroxamic acid], the inhibition constant (Ki) in assay [2] stood at 157 nM.

In the case of `O=C(CN(Cc1ccccc1)Cc1ccccc1)NO` [Example 67, 2-(dibenzylamino) ethanehydroxamic acid], in assay [2], the half-inhibitory concentration (IC50) came to 7880 nM and the Ki came out at 3090 nM.

The IC50 is the concentration that inhibits the measured activity by half. By Ki is commonly meant the dissociation constant of the complex between target and ligand, obtained from inhibition or displacement.
